Reference: patent US6153587A, “Conformationally constrained LH-RH analogues, their uses and pharmaceutical compositions containing them” (Laboratoire THERAMEX, priority 1996, dated 2000)
Values joined by “and” are separate entries in the source; they are usually repeats but may differ in a detail not shown here. Equal entries are not always repeated. Where two headings read alike, the source gives them in different places. Where a SMILES comes first, the peptide text is derived from it. [ ]: non-standard residue; d: D form. The star is where a group is joined. dPhe(4-Cl) = N[C@H](Cc1ccc(Cl)cc1)C(=O)O; d2Nal = N[C@H](Cc1ccc2ccccc2c1)C(=O)O; Lys(iPr) = CC(C)NCCCC[C@H](N)C(=O)O; d3Pal = N[C@H](Cc1cccnc1)C(=O)O; Nicotinoyl = O=C(c1cccnc1)*

Columns and labels:
[1] = target: T1, LH-RH receptors (Rattus norvegicus, UniProt P30969); experiment: Affinity for LH-RH receptors: [125I]-buserelin binding to rat pituitary membranes; conditions: for Ki: 2 hours at 4° C., Ki from IC50 by Cheng-Prusoff
T1 construct: from tissue; host or cells: rat pituitary membrane fraction (female Sprague Dawley)
T1 sequence (P30969 1-327): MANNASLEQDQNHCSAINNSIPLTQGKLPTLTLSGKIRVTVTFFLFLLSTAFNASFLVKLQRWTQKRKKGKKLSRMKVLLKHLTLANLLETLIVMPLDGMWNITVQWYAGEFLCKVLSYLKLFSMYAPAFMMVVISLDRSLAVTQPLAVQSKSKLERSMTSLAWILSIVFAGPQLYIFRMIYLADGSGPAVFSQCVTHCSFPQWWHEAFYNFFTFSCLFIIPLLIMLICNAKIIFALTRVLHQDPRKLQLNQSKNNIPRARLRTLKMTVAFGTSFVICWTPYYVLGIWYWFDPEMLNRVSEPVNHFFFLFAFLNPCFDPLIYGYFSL
Experimental: This affinity has been determined according to the following method:
Pituitaries from female Sprague Dawley rats were removed and homogenized with a Potter homogenizer in a 25 mM HEPES buffer (pH 7.4) containing 0.32 M sucrose, 100 μg/l PMSF (phenylmethylsulfonylfluoride), 5.6 U/l aprotinin and 10,000 U/l bacitracin. The homogenates were centrifuged at 700 g for 10 minutes and the supernatants were further centrifuged at 12,500 g for 30 minutes. The pellets were homogenized and centrifuged as described above, in the same buffer but without sucrose.
All homogenization, centrifugation and subsequent incubation steps were carried out at 4° C.
The assay was terminated by filtration under suction (Brandel 96-well harvester) through Whatman GF/B glass fiber filters. […] Each compound was tested in at least 4 experiments.
Specific binding data were analysed according to Scatchard's method.
For each test compound, the inhibitory constant (Ki) was calculated from its IC50 according to the Cheng and Prussofs equation: Ki=IC50 /(1+[radioligand]/Kd). Ki was then transformed into pKi (=-log Ki) for final expression of affinity scales.

[2] = target: T1, LH-RH receptors; experiment: Inhibition of ovulation in female Wistar rats; format: in vivo
Experimental: The peptides according to the general formula (IIb) exert an antagonist activity upon the LH-RH receptors in vivo, resulting in the inhibition of ovulation in the female.
Adult female Wistar rats are first monitored for normal estrous cyclicity by daily vaginal smears. After at least 2 regular 4-day cycles, they received by subcutaneous injection either the vehicle alone (0.5 ml of a mixture of propylene-glycol and water: 20/80 vol/vol), or the LH-RH antagonist according to the formula (IIb) dissolved in this vehicle, around 2:00 PM on the day of proestrus.
If effective, LH-RH antagonists totally block ovulation. […] The 50% inhibitory dose of antide is slightly lower than 1 μg/rat.

[3] = target: T1, LH-RH receptors; experiment: Total plasma testosterone in male Sprague-Dawley rats after subcutaneous injection; format: in vivo; conditions: 30 nanograms/kg subcutaneous; for Total testosterone: plasma at two hours, male Sprague-Dawley rats
Experimental: (§1) The peptides according to the general formula (IIa) exert an agonist activity upon the LH-RH receptors in vivo, resulting in the induction of ovulation in the female and in the stimulation of testosterone secretion in the male following acute subcutaneous administration.
Adult male Sprague-Dawley rats are treated by a subcutaneous injection of LH-RH agonists at the same dose of 30 nanograms/kg dissolved in PBS. Two hours later, blood samples are drawn for total plasma testosterone measurement by direct radioimmunoassay (Immunotech). At this dose, LH-RH itself is not active standard LH-RH agonists and selected examples according to formula (Ila) are compared in Table 3 below: […]

[4] = target: T1, LH-RH receptors; experiment: Induction of ovulation in pentobarbital-blocked female Wistar rats; format: in vivo; conditions: subcutaneous
Experimental: as §1
Adult female Wistar rats are first monitored for normal estrous cyclicity by daily vaginal smears. After at least 2 regular 4-day cycles, they all receive an intraperitoneal injection of 50 mg/kg of sodium pentobarbital around 2:00 PM on the day of proestrus, which blocks the spontaneous ovulation in the negative control animals receiving in addition only the subcutaneous vehicle (PBS: phosphate buffered saline, 0.05 M, pH 7.4 containing 0.1% bovine serum albumin). At the same time, test animals are injected subcutaneously with LH-RH, standard LH-RH agonists or examples according to the formula (Ha), at various doses in solution in the vehicle described above. The following morning, the oviducts are excised and carefully dissected to search for ovocytes. None are found in the negative pentobarbital-blocked animals.
If effective, LH-RH agonists induce ovulation during the night between proestrus and estrus. The percentage of ovulating female rats, defined by the presence of at least one ovocyte in one of the two oviducts, is plotted as a function of the injected dose.

[5] = 20 to 70 μM [125I]-buserelin, read-out: pKi (affinity for LH-RH receptors) (converted)
[6] = pKi (affinity for LH-RH receptors), [125I]-buserelin

| SMILES | Ki [1, 5] | IC50 range in words ([1]; [125I]-buserelin) | Total testosterone [3] [ng/mL] | ED50 (dose producing 50% of ovulation) [4] [nanograms/rat] | further results |
| --- | --- | --- | --- | --- | --- |
| CC(=O)N[C@H](Cc1ccc2ccccc2c1)C(=O)N[C@H](Cc1ccc(Cl)cc1)C(=O)N[C@H](Cc1cccnc1)C(=O)N[C@@H](CO)C(=O)N[C@@H](CCCCNC(=O)c1cccnc1)C(=O)N[C@H](CCCCNC(=O)c1cccnc1)C(=O)N[C@@H](CC(C)C)C(=O)N[C@@H](CCCCNC(C)C)C(=O)N1CCC[C@H]1C(=O)N[C@H](C)C(N)=O [Antide] (Ac-[d2Nal][dPhe(4-Cl)][d3Pal]SK(Nicotinoyl)[dK](Nicotinoyl)L[Lys(iPr)]P[dA]-NH2; N-terminus and C-terminus assumed) | 0.603 nM | subnanomolar range |  |  | Number of ovulating females/total number of treated females ([2]; dose 0.5 μg/rat subcutaneous): 4/5; Number of ovulating females/total number of treated females ([2]; dose 1 μg/rat subcutaneous): 5/16; Number of ovulating females/total number of treated females ([2]; dose 2.5 μg/rat subcutaneous): 2/6; Number of ovulating females/total number of treated females ([2]; dose 5 μg/rat subcutaneous): 0/11; Number of ovulating females/total number of treated females ([2]; dose 10 μg/rat subcutaneous): 0/8; 50% inhibitory dose ([2]; inhibition of ovulation, subcutaneous): lower than 1 μg/rat |
| CCNC(=O)[C@@H]1CCCN1C(=O)[C@H](CCCNC(=N)N)NC(=O)[C@H](CC(C)C)NC(=O)[C@@H](COC(C)(C)C)NC(=O)[C@H](Cc1ccc(O)cc1)NC(=O)[C@H](CO)NC(=O)[C@H](Cc1c[nH]c2ccccc12)NC(=O)[C@H](Cc1cnc[nH]1)NC(=O)[C@@H]1CCC(=O)N1 [Buserelin] |  | subnanomolar range | 15.4 ± 0.71 |  | Ki [1, 6]: < 1 nM and 0.427 nM |
| CCNC(=O)[C@@H]1CCCN1C(=O)[C@H](CCCN=C(N)N)NC(=O)[C@H](CC(C)C)NC(=O)[C@@H](Cc1c[nH]c2ccccc12)NC(=O)[C@H](Cc1ccc(O)cc1)NC(=O)[C@H](CO)NC(=O)[C@H](Cc1c[nH]c2ccccc12)NC(=O)[C@H](Cc1cnc[nH]1)NC(=O)[C@@H]1CCC(=O)N1 [Deslorelin] | < 1 nM and 0.126 nM | subnanomolar range |  | 4.8 |  |
| CC(C)C[C@H](NC(=O)[C@@H](COC(C)(C)C)NC(=O)[C@H](Cc1ccc(O)cc1)NC(=O)[C@H](CO)NC(=O)[C@H](Cc1c[nH]c2ccccc12)NC(=O)[C@H](Cc1cnc[nH]1)NC(=O)[C@@H]1CCC(=O)N1)C(=O)N[C@@H](CCCNC(=N)N)C(=O)N1CCC[C@H]1C(=O)NNC(N)=O [Goserelin] |  |  | 15.0 ± 2.5 | 4.3 | Ki [1, 6]: 2.63 nM |
| CCNC(=O)[C@@H]1CCCN1C(=O)[C@H](CCCNC(=N)N)NC(=O)[C@H](CC(C)C)NC(=O)[C@@H](Cc1cn(Cc2ccccc2)cn1)NC(=O)[C@H](Cc1ccc(O)cc1)NC(=O)[C@H](CO)NC(=O)[C@H](Cc1c[nH]c2ccccc12)NC(=O)[C@H](Cc1cnc[nH]1)NC(=O)[C@@H]1CCC(=O)N1 [Histrelin] | < 1 nM and 0.105 nM | subnanomolar range | 12.7 ± 1.9 |  |  |
| CC(C)C[C@H](NC(=O)CNC(=O)[C@H](Cc1ccc(O)cc1)NC(=O)[C@H](CO)NC(=O)[C@H](Cc1c[nH]c2ccccc12)NC(=O)[C@H](Cc1c[nH]cn1)NC(=O)[C@@H]1CCC(=O)N1)C(=O)N[C@@H](CCCNC(=N)N)C(=O)N1CCC[C@H]1C(=O)NCC(N)=O [LH-RH] |  |  |  | 15 | activity on testosterone secretion, in words [3]: not active |
| CCNC(=O)[C@@H]1CCCN1C(=O)[C@H](CCCNC(=N)N)NC(=O)[C@H](CC(C)C)NC(=O)[C@@H](CC(C)C)NC(=O)[C@H](Cc1ccc(O)cc1)NC(=O)[C@H](CO)NC(=O)[C@H](Cc1c[nH]c2ccccc12)NC(=O)[C@H](Cc1c[nH]cn1)NC(=O)[C@@H]1CCC(=O)N1 [Leuprorelin] |  |  | 11.9 ± 1.5 | 1.9 |  |
| CC(C)C[C@H](NC(=O)[C@@H](Cc1c[nH]c2ccccc12)NC(=O)[C@H](Cc1ccc(O)cc1)NC(=O)[C@H](CO)NC(=O)[C@H](Cc1c[nH]c2ccccc12)NC(=O)[C@H](Cc1c[nH]cn1)NC(=O)[C@@H]1CCC(=O)N1)C(=O)N[C@@H](CCCNC(=N)N)C(=O)N1CCC[C@H]1C(=O)NCC(N)=O [Tryptorelin] | < 1 nM and 0.141 nM | subnanomolar range | 12.1 ± 0.7 | 2.9 |  |
